Experimental data from PMC9822287, “The Fate and Intermediary Metabolism of Soyasapogenol in the Rat” (Molecules, 2022).
Read-outs that look alike come from different tables or passages of the source.

Assays:
[1] = Pharmacokinetics of intravenous injection in rats (plasma); assay type: in vivo; details: rat, intravenous (I.V.); for AUC(0-inf) / Cmax / Tmax / AUC(0-t) / half-life: plasma; for AUC(0-t): mean n = 6; for half-life: iv, read-out: T1/2z (half-life) (converted)
Description: The rats’ dorsal foot veins were cannulated with a standard syringe needle to administer the soyasapogenol. As presented in Table 5, the dosages of soyasapogenol A were 10 mg/kg and 20 mg/kg, and the dosages of soyasapogenol B were 25 mg/kg and 50 mg/kg. Blood samples were collected from the tail vein just prior to soyasapogenol administration (0 h) and 0.03, 0.08, 0.25, 0.5, 1, 2, 4, 6, 8, and 24 h after soyasapogenol loading; blood soyasapogenol levels were measured immediately. The collected blood sample volume was approximately 200 μL, and the samples were subjected to the same sample pretreatment procedure as described below.
(§1) The soyasapogenol concentrations in the rat plasma solutions were determined according to the method published in [5]. At first, the plasma samples were thawed to 4 °C and transferred (20 to 100 μL) to an Eppendorf tube. After adding the same volume of 0.2 mol/L sodium acetate buffer to each sample, 3 µL aliquots of glucuronidase (Sigma; extracted from Helix pomatia, containing 95,600 units/mL glucuronidase and 1100 units/mL sulfatase) were added to analyze the glucuronyl- and sulfatide-conjugated forms of the soyasapogenols, and the mixture was incubated at 37 °C for 12 h. The samples were mixed thoroughly, and then they were centrifuged at 10,000 rpm for 15 min. The supernatant was blown with nitrogen gas until it was dry, and residual supernatant was dissolved with 1 mL methanol. Subsequently, after filtration, the samples were analyzed according to the method published in [5].

[2] = Pharmacokinetics of oral administration in rats (plasma); assay type: in vivo; details: rat; for bioavailability / AUC(0-inf) / AUC(0-t) / CL/F / half-life / Cmax / Tmax / concentration at 1 h: plasma; for bioavailability: oral AUC(0-∞)/intravenous AUC(0-∞), read-out: Bioavailability (F); for AUC(0-t): mean n = 6; for CL/F: read-out: CLz/F (clearance) (converted); for half-life: read-out: T1/2z (biological half-life) (converted); for Ratio of B/A in plasma level (AUC): ratio of soyasapogenol B to soyasapogenol A in plasma; for Cmax / Tmax: po; for concentration at 1 h: 1.0 h postadministration
Description: The experiments were performed according to Kamo et al. The rats were divided into three groups (n = 8). All rats were fasted for 14–15 h prior to soyasapogenol A or B administration. All rats were orally administered soyasapogenol A or B via direct stomach intubation.
Blood samples were collected from the tail vein at 0 (pre-dose), 0.25, 0.5, 1, 2, 4, 6, 8, and 24 h after administration. The sample volume was 200 μL. The samples were immediately transferred to a centrifuge tube and treated with a sodium citrate anticoagulant. This fraction was then centrifuged at 10,000 rpm for 10 min, and the upper plasma was collected and placed in a refrigerator at −80 °C for later use.
as §1
The bioavailability parameters were calculated by comparing AUCoral postadministration with AUCiv post-soyasapogenol I.V. injection:%Bioavailability = [(AUCoral) × Doseiv/(AUCiv) × Doseoral] × 100
The calculation formula is as follows: F = oral administration AUC(0-∞)/intravenous injection AUC(0-∞).

Caco-2 cell monolayer = test system: Caco-2 cell monolayer; parameters: method as in PMID 24698352; details: cited from earlier work

With CC1(C)C[C@@H](O)[C@]2(C)CC[C@]3(C)C(=CC[C@@H]4[C@@]5(C)CC[C@H](O)[C@](C)(CO)[C@@H]5CC[C@]43C)[C@@H]2C1 [Soyasapogenol B] the AUC(0-inf) ([1]; 25 mg/kg) was 181 µg·h/mL, the Cmax ([1]; 25 mg/kg) was 43300 ng/mL and the Tmax ([1]; 25 mg/kg) was 1.8 min. The AUC(0-t) ([1]; 25 mg/kg) was 76.2 µg·h/mL, the AUC(0-inf) ([1]; 50 mg/kg) was 258 µg·h/mL and the Cmax ([1]; 50 mg/kg) was 66800 ng/mL. It also gave a Tmax ([1]; 50 mg/kg) of 1.8 min, an AUC(0-t) ([1]; 50 mg/kg) of 154 µg·h/mL and a CLz/F ([1]; 25 mg/kg) of 4.1 mL/min/kg. The “T1/2z (half-life)” value ([1]; 25 mg/kg) was 5.138 h, the CLz/F ([1]; 50 mg/kg) was 1.28 mL/min/kg and the “T1/2z (half-life)” value ([1]; 50 mg/kg) was 5.528 h. For the same compound, the half-life ([1]; 25 mg/kg, 25 mg/kg) was 5.14 h, the half-life ([1]; 50 mg/kg, 50 mg/kg) was 5.53 h and the bioavailability ([2]; 25 mg/kg) was 60.9%. The bioavailability ([2]; 50 mg/kg) was 69%, the AUC(0-inf) ([2]; oral (P.O.), 25 mg/kg) was 111 µg·h/mL and the AUC(0-t) ([2]; oral (P.O.), 25 mg/kg) was 96 µg·h/mL. The CL/F ([2]; oral (P.O.), 25 mg/kg) was 3.02 mL/min/kg, the half-life ([2]; oral (P.O.), 25 mg/kg) was 2.29 h and the AUC(0-inf) ([2]; oral (P.O.), 50 mg/kg) was 178 µg·h/mL. The AUC(0-t) ([2]; oral (P.O.), 50 mg/kg) was 157 µg·h/mL, the CL/F ([2]; oral (P.O.), 50 mg/kg) was 1.87 mL/min/kg and the half-life ([2]; oral (P.O.), 50 mg/kg) was 2.27 h. For the same compound, the “time needed to reach peak concentration” value ([2]; oral administration, dose not stated) was 8 h, the “Ratio of B/A in plasma level (AUC)” value ([2]; oral, soyasapogenol B 25 mg/kg column) was 2.17 and the “Ratio of B/A in plasma level (AUC)” value ([2]; oral, soyasapogenol B 50 mg/kg column) was 1.87. The Cmax ([2]; 25 mg/kg, oral (P.O.), 25 mg/kg, read-out: Cmax (peak concentration)) was 26400 ng/mL, the Tmax ([2]; 25 mg/kg, oral (P.O.), 25 mg/kg, read-out: Tmax (peak time)) was 2 h and the Cmax ([2]; 50 mg/kg, oral (P.O.), 50 mg/kg, read-out: Cmax (peak concentration)) was 40300 ng/mL. The Tmax ([2]; 50 mg/kg, oral (P.O.), 50 mg/kg, read-out: Tmax (peak time)) was 2 h, the Tmax ([2]; oral administration, dose not distinguished, read-out: Tmax) was 2 h and the “amount (%) that permeates into the basolateral side from the apical side” value (Caco-2 cell monolayer) was “much higher than that of soyasapogenol A”.
CC1(C)C[C@H]2C3=CC[C@@H]4[C@@]5(C)CC[C@H](O)[C@](C)(CO)[C@@H]5CC[C@@]4(C)[C@]3(C)CC[C@@]2(C)[C@H](O)[C@@H]1O [Soyasapogenol A] gave an AUC(0-inf) ([1]; 10 mg/kg) of 69.4 µg·h/mL, a Cmax ([1]; 10 mg/kg) of 31700 ng/mL and a Tmax ([1]; 10 mg/kg) of 1.8 min. The AUC(0-t) ([1]; 10 mg/kg) was 56 µg·h/mL, the AUC(0-inf) ([1]; 20 mg/kg) was 142 µg·h/mL and the Cmax ([1]; 20 mg/kg) was 102000 ng/mL. It also gave a Tmax ([1]; 20 mg/kg) of 1.8 min, an AUC(0-t) ([1]; 20 mg/kg) of 114 µg·h/mL and a CLz/F ([1]; 10 mg/kg) of 4.8 mL/min/kg. The “T1/2z (half-life)” value ([1]; 10 mg/kg) was 3.535 h, the CLz/F ([1]; 20 mg/kg) was 2.35 mL/min/kg and the “T1/2z (half-life)” value ([1]; 20 mg/kg) was 3.475 h. The half-life ([1]; 10 mg/kg, 10 mg/kg) was 3.54 h, the half-life ([1]; 20 mg/kg, 20 mg/kg) was 3.48 h and the concentration at 1 h ([2]; oral, 10 mg/kg by gavage) was 29000 ± 10000 ng/mL. It also gave a concentration at 1 h ([2]; oral, 20 mg/kg by gavage) of 7000 ± 6000 ng/mL, a bioavailability ([2]; 10 mg/kg) of 73.1% and a bioavailability ([2]; 20 mg/kg) of 67.3%. It also gave an AUC(0-inf) ([2]; oral (P.O.), 10 mg/kg) of 50.7 µg·h/mL, an AUC(0-t) ([2]; oral (P.O.), 10 mg/kg) of 35.2 µg·h/mL and a CL/F ([2]; oral (P.O.), 10 mg/kg) of 6.57 mL/min/kg. The half-life ([2]; oral (P.O.), 10 mg/kg) was 2.55 h, the AUC(0-inf) ([2]; oral (P.O.), 20 mg/kg) was 95.5 µg·h/mL and the AUC(0-t) ([2]; oral (P.O.), 20 mg/kg) was 88.6 µg·h/mL. It also gave a CL/F ([2]; oral (P.O.), 20 mg/kg) of 3.48 mL/min/kg, a half-life ([2]; oral (P.O.), 20 mg/kg) of 1.97 h and a Cmax ([2]; 10 mg/kg, oral (P.O.), 10 mg/kg, read-out: Cmax (peak concentration)) of 8590 ng/mL. It also gave a Tmax ([2]; 10 mg/kg, oral (P.O.), 10 mg/kg, read-out: Tmax (peak time)) of 2 h, a Cmax ([2]; 10 mg/kg, oral, at 1.0 h postadministration, printed as the 10 mg/kg dose (second mention), read-out: Cmax) of 29000 ng/mL and a Tmax ([2]; 10 mg/kg, oral, printed as the 10 mg/kg dose (second mention), read-out: time of maximum plasma concentration) of 1 h. For the same compound, the Cmax ([2]; 20 mg/kg, oral (P.O.), 20 mg/kg, read-out: Cmax (peak concentration)) was 29000 ng/mL and the Tmax ([2]; 20 mg/kg, oral (P.O.), 20 mg/kg, read-out: Tmax (peak time)) was 1 h.
